Laboratory results taken from patent US20260283924A1, “TOPICAL COMPOSITIONS FOR PROMOTING HAIR GROWTH” (ESTETRA SRL, priority 2023, published 2026).

Test system: occipital hair follicles (healthy donor)
Test: Healthy donor hair follicle organ culture (ex vivo model), Example 8
Format: cell-based, human
Settings: 300 nM
Protocol: In brief, 24 full-length occipital hair follicles (HF) were obtained from one healthy donor. […] Test substance (either vehicle (0.03% EtOH), E2 at concentration of 300 nM or E4 at concentrations of 3 μM or 300 nM) was added to the medium at the end of the 24 h. Total culturing time was 5 days depending on the stage of the HFs in the vehicle group. The experimental design is depicted in FIG. 23.

C[C@]12CC[C@@H]3c4ccc(O)cc4CC[C@H]3[C@@H]1CC[C@@H]2O [Formulation E2, 17beta-estradiol]
K15 expression in the suprabulbar outer root sheath: tendentially increased | area of the dermal papilla: no effect | density of cells in the dermal cup of anagen HFs: no effect | density of cells in the dermal papilla: no effect | density of cells in the dermal papilla stalk: no effect | hair matrix keratinocyte proliferation: tendentially increased | hair shaft production (reduction vs vehicle): significantly reduced | microscopic hair cycle: did not affect the hair cycle | number of CD34+ cells in the suprabulbar outer root sheath: no effect | number of cells (K15) in the suprabulbar outer root sheath: tendentially increased | total number of cells in the dermal cup of anagen HFs: no effect | total number of cells in the dermal papilla: no effect | total number of cells in the dermal papilla stalk: no effect | K15 expression in the suprabulbar outer root sheath (listed as Estradiol): tendentially increase K15 expression | area of the dermal papilla (listed as Estradiol): does not display a significant effect | density of cells in the dermal cup of anagen HFs (listed as Estradiol): does not display a significant effect | density of cells in the dermal papilla (listed as Estradiol): does not display a significant effect | density of cells in the dermal papilla stalk (listed as Estradiol): does not display a significant effect | hair matrix keratinocyte proliferation (listed as Estradiol): increased | hair shaft production (reduction vs vehicle) (listed as Estradiol): Reduction of hair shaft production | microscopic hair cycle (listed as Estradiol): does not affect hair cycle | number of CD34+ cells in the suprabulbar outer root sheath (listed as Estradiol): does not display any effect | number of cells (K15) in the suprabulbar outer root sheath (listed as Estradiol): tendentially increase | total number of cells in the dermal cup of anagen HFs (listed as Estradiol): does not display a significant effect | total number of cells in the dermal papilla (listed as Estradiol): does not display a significant effect | total number of cells in the dermal papilla stalk (listed as Estradiol): does not display a significant effect
